Each structure is given as a SMILES string.

The subject of series [1] is Herpes simplex virus type 2 (HSV-2). Description: Inactivation of cell-free HSV-2 by acidified exposure media, titred on Elvis cells. It is filed as cell-based. Particulars: 0.1% acid, pH 3.8, 30 minutes, 37° C. On the procedure:
The effect of low pH alone, and low pH in the presence of racemic lactic acid, L-lactic acid, and D-lactic acid on the survival of Herpes simplex virus type 2 (HSV-2) was assessed. Cell-free HSV-2 (ATCC VR-734™ strain 9, American Type Culture Collection, Manassas, Va.) was aliquoted, stored at −80° C., and thawed immediately before its use. Elvis™ (Enzyme-linked Virus Inducible System™) cells (Diagnostic Hybrids, Athens Ohio) were supplied growing in flat-bottomed, 96-well microplates. Each plate was kept in a humidified incubator (5% CO2, 37° C.) until the cells were between 75% and 95% confluent. The supplier's original growth medium was replaced with fresh, pre-warmed tissue culture re-feeding medium (Trinity Biotech USA, Jamestown, N.Y.) several hours before the microplate was used in an experiment.
Viral exposure media were prepared by adding 0.1% D,L-lactic acid (Sigma-Aldrich, St. Louis, Mo.), D-lactic acid (Bachem Bioscience Inc., King of Prussia, Pa.), L-lactic acid, (Sigma-Aldrich, St. Louis, Mo.), acetic acid (Sigma-Aldrich) or no acid to 0.9% NaCl in deionized water. The pH of the solutions was measured and adjusted as necessary before, during, and after the experiments using an MI-410 combination pH electrode (Microelectrodes Inc., Bedford, N.H.) to pH 3.8 for all of the organic acid-containing viral exposure media. Two viral exposure media not containing an organic acid were adjusted to pH 3.8 with HCl, or to pH 7.4 with dilute NaOH. Freshly thawed viral stock was diluted 1:10 with viral exposure media and incubated for 30 minutes at 37° C. At the end of the incubation, all media were diluted ten-fold with re-feeding medium to rapidly neutralize the acidity of those media that were acidic. Three-fold serial dilutions were then made with the same growth medium. Each dilution of virus was then inoculated into two replicate wells on a microplate of Elvis™ cells. The microplate was spun at […], 25° C. for 25 minutes and incubated in a humidified incubator (5% CO2, 37° C.) for 16-24 hours. The growth medium was removed from the microplate wells, and the Elvis™ cells were fixed and stained according to the manufacturer's instructions. The microplate wells were examined on an inverted microscope for the presence of blue-stained cells, indicating viral infection.

Series [2] concerns Herpes simplex virus type-1 (HSV-1). The series can be described thus: Inactivation of HSV-1 (KOS strain) by acidified exposure media. It is filed as cell-based. The following applies: 0.1%, pH 3.8, 30-minute exposure.
Series [3] deals with lactobacilli. The series can be described thus: Survival of lactobacillus strains after 2-hour exposure to lactic acid. It is filed as cell-based, four lactobacillus strains. On the procedure:
(§1) Eighteen BV-associated organisms, and four lactobacillus strains obtained from the American Type Culture Collection, Rockville Md., were grown in appropriate growth medium and incubation conditions, and exposed to a 2-hour further incubation at 37° C. in media at pH 7 without lactic acid, or at pH 4.5 with racemic lactic acid concentrations ranging from zero to 550 mM (5%). The number of organisms surviving exposure to these conditions is plotted in FIG. 4. BV-associated organisms are plotted with solid lines.

Series [4] deals with M. mulieris, M. curtisii, Mycoplasma hominus. Description: Inactivation of three BV-associated organisms by L-lactic acid. It is filed as cell-based, Mobiluncus mulieris, Mobiluncus curtisii. The following applies: pH 4.5, 2-hour, 37° C. The method, then:
as §1

The subject of series [5] is HeLa cells.
Method: The toxicity of D-lactic acid and of L-lactic acid were assessed on tissue culture monolayers using a well known cell viability assay. HeLa cells (ATCC CCL-2, a cell line derived from a cervical epithelial cancer) were grown in 96-well tissue culture plates to approximately 90% confluence in DMEM medium supplemented with 3% fetal bovine serum. Medium was removed from the wells, and replaced by the same medium now containing D- or L-lactic acid between concentrations of 0% and 1% (w/v). The plates were incubated for 30 minutes at 37° C. and 5% CO2. The wells were washed three times with 0.9% saline, and then 20 microliters of a tetrazolium viability stain (Promega CellTiter 9603 One Solution) was added. After 1 hour, the absorbance of the fluid in the wells was read with a spectrophotometer at a wavelength of 575 nanometers.
Series [6] has as its system BV-associated organisms. Description: Survival of BV-associated organisms after 2-hour exposure to racemic lactic acid. In kind it is cell-based, Eighteen BV-associated organisms. The following applies: pH 4.5, between 10 and 100 mM (~0.1-1%) lactic acid, 37° C., versus pH 4.5 without lactic acid. The method, then:
as §1

In the case of `C[C@H](O)C(=O)O` [L-lactic acid], in series [1], the “HSV-2 inactivation beyond low pH without organic acids (in words)” value is “further reduced HSV-2 viability”; the “reduction of HSV-2 viability, more than low pH with D-lactic acid” value is “approximately 5 fold”; the “reduction of HSV-2 viability, more than low pH without lactic acid” value is recorded as “approximately 11 fold”. In series [2], the “HSV-1 inactivation, greater than D-lactic acid at pH 3.8” value is “approximately 10 fold”; the “HSV-1 inactivation, more than at pH 3.8 without lactic acid” value is on record as about 25 fold; the “HSV-1 inactivation, more than the control at pH 7.4 without lactic acid” value was “approximately 80 fold”. In addition, in series [3] (pH 4.5, inferred from 550 mM racemic lactic acid being 50% L-lactic acid), the “concentration not harmful to lactobacilli” value is on record as “up to 280 mM”. Besides, the “Inactivation of all three organisms at pH 4.5 with L-lactic acid versus pH 4.5 without lactic acid (in words)” value in series [4] was “substantially greater”. Besides, in series [5], the “shift of dose-response for cellular cytotoxicity relative to D-lactic acid” value is recorded as “more than 500 fold”.

For the molecule `CC(O)C(=O)O` (racemic) [racemic lactic acid, D,L-lactic acid, reference compound], the “Inactivation of BV-associated organisms (in words)” value in series [6] is reported as “dramatically increased”. In addition, in series [3] (pH 4.5, highest concentration tested (5% or ~550 millimolar), 2-hour, 37° C.), the “Survival of lactobacilli (in words)” value is reported as “survived unaltered”.

As to `C[C@@H](O)C(=O)O` [D-lactic acid, reference compound], in series [1], the “HSV-2 inactivation beyond low pH without organic acids (in words)” value is “further reduced HSV-2 viability”.

Turning to `CC(=O)O` [acetic acid, reference compound], the “HSV-2 inactivation beyond low pH without organic acids (in words)” value in series [1] is on record as “did not increase the degree of inactivation”.

Source of the values: patent publication US20120070476A1, “Compositions and Methods for Inactivation of Pathogens at Genital Tract Surfaces” (priority 2009, published 2012).
